Earlier results on 3 compounds are cited in US10517911B2, “Manufacturing methods, compositions, and medical applications of orally administered cannabis pharmaceuticals using representative/total/complete cannabis extractions (cannabis infused pills)” (priority 2016, dated 2019).

Data set [1] deals with methicillin-resistant Staphylococcus aureus (MRSA).
Another data set concerns the target COX-1 (Homo sapiens, UniProt P23219).
The next data set has as its target T1, COX-2 (Homo sapiens, UniProt P35354).
T1 sequence (P35354 18-604): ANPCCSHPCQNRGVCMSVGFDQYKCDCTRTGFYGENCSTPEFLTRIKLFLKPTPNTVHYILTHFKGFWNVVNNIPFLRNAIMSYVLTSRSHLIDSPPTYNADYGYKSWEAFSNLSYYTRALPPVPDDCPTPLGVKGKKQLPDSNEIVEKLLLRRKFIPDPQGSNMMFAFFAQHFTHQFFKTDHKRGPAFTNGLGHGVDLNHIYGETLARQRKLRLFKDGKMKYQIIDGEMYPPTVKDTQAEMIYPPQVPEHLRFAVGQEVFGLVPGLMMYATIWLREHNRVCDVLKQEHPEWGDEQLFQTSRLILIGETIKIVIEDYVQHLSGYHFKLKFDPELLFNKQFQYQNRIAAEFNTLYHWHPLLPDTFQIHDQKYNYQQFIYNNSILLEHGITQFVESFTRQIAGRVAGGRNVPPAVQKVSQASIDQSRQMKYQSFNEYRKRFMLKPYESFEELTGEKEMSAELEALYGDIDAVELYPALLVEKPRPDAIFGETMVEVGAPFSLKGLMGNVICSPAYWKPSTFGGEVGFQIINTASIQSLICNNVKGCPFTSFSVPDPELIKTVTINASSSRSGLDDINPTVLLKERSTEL

Sequence of COX-1 (P23219 24-599): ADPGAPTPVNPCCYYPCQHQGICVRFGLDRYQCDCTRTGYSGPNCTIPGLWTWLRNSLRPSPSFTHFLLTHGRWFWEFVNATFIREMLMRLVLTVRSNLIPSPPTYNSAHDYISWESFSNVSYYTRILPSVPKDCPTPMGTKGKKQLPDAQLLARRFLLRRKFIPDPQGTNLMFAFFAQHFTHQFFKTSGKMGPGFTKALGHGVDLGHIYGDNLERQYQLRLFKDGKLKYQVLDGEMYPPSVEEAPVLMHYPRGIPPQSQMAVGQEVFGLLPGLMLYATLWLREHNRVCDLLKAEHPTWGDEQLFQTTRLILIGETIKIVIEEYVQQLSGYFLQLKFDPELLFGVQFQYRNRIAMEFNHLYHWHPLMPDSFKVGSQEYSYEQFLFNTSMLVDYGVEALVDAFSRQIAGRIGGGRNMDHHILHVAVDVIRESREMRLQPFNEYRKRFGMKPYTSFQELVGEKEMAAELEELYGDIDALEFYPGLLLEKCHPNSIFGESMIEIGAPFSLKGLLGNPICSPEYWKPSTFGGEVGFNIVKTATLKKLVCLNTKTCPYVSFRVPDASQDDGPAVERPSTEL

With `C=C(C)[C@@H]1CCC(C)=C[C@H]1c1c(O)cc(CCCCC)cc1O` [Cannabidiol], the “activity against methicillin-resistant Staphylococcus aureus (MRSA)” value in data set [1] is given as “powerful activity”.
As to `CCCCCc1cc(O)c2c(c1)OC(C)(C)c1ccc(C)cc1-2` [Cannabinol], in data set [1], the “activity against methicillin-resistant Staphylococcus aureus (MRSA)” value is “powerful activity”.
For the compound `CCCCCc1cc(O)c2c(c1)OC(C)(C)[C@@H]1CCC(C)=C[C@@H]21` [Tetrahydrocannabinol I, Tetrahydrocannabinol], the “anti-inflammatory effectiveness relative to aspirin” value (times as effective as aspirin) was 20 times. Also, where the note is “times as effective as hydrocortisone”, the “anti-inflammatory effectiveness relative to hydrocortisone” value is reported as 2 times. In addition, at COX-1, the COX-1 inhibition entry is on record as “no COX-1 or COX-2 inhibition”. Further, the COX-2 inhibition result at COX-2 is “no COX-1 or COX-2 inhibition”.
